Results published in publication PMC11430712, “The Endocannabinoid Peptide RVD-Hemopressin Is a TRPV1 Channel Blocker” (Biomolecules, 2024).

Key:
human TRPV1 channel [1] = molecular target: T1, human TRPV1 channel (Homo sapiens, UniProt Q8NER1); experiment: Calcium imaging (Fura Red-AM), HEK293 cells transfected with hTRPV1-GFP; format: cell-based; conditions: 1 µM Cap; hTRPV1-GFP HEK293; pH 7.4, room temperature; n: 58; vs DMSO **** p < 0.0001
T1 construct: host or cells: HEK293
Protocol: (§1) Dr. Alejandro Maureira, Universidad Católica del Maule, Chile, generously provided HEK293 cells. The cells were cultured in T75 flasks (Corning Inc., Corning, NY, USA) in a humidified atmosphere at 37 °C with 5% CO2 in Dulbecco’s Modified Eagle Medium (DMEM) with high glucose (Cytiva, Marlborough, MA, USA), supplemented with 10% fetal bovine serum (Cytiva, Marlborough, MA, USA) and a mixture of 100 IU/mL penicillin and 100 µg/mL streptomycin (Corning Inc., Corning, NY, USA) in a CO2CELL incubator (MMM Group, Munich, Germany). This procedure was used to maintain the cells for all of the experiments.
(§2) HEK293 cells were transfected with the human TRPV1 channel coupled to GFP in its C-terminus (TRPV1-GFP, catalog #: RG217653, Origene, Rockville, MD, USA). […] Transfections were conducted using Lipofectamine 3000 (Invitrogen, Waltham, MA, USA), according to the manufacturer’s instructions. Experimental protocols were performed 24 h post-transfection.
(§3) The data were analyzed and plotted using GraphPad software v10.0.2. We used the Shapiro–Wilk test to determine the data distribution. […] Statistically significant values were considered when p values were * p < 0.05, ** p < 0.01, *** p < 0.001, and **** p < 0.0001.

[2] = system: HEK293-untransfected cells; experiment: Calcium imaging (Fura Red-AM), untransfected HEK293 cells; format: cell-based; conditions: 1 µM Cap, confocal, pH 7.4, room temperature, n: 26
Protocol: Dr. Alejandro Maureira, Universidad Católica del Maule, Chile, generously provided HEK293 cells. The cells were cultured in T75 flasks (Corning Inc., Corning, NY, USA) in a humidified atmosphere at 37 °C with 5% CO2 in Dulbecco's Modified Eagle Medium (DMEM) with high glucose (Cytiva, Marlborough, MA, USA), supplemented with 10% fetal bovine serum (Cytiva, Marlborough, MA, USA) and a mixture of 100 IU/mL penicillin and 100 μg/mL streptomycin (Corning Inc., Corning, NY, USA) in a CO2CELL incubator (MMM Group, Munich, Germany). This procedure was used to maintain the cells for all of the experiments. […] Then, the cells were washed and cultured during the experiment with the extracellular solution containing (in mM) 140 NaCl, 5 KCl, 2 CaCl2, 1 MgCl2, 10 HEPES, and 6 glucose, with pH adjusted to 7.4 with NaOH [13]. Calcium images were obtained every 3 s for 30 min using Leica Stellaris 5 spectral confocal microscopy. […] Fura Red emissions in bound and unbound states were acquired around their peaks at 610 nm and 670 nm, respectively. The bound and unbound fluorescence of Fura Red-AM was acquired using Leica LAS X v.4.3.0.24308 software. The Fura Red-Am bound and unbound ratio was calculated (405 nm/488 nm) and plotted. […] The data were analyzed and plotted using GraphPad software v10.0.2. […]

human TRPV1 channel [3] = molecular target: T1, human TRPV1 channel; experiment: Whole-cell voltage-clamp recording of TRPV1 currents, HEK293 cells with human TRPV1-GFP; format: cell-based; conditions: 1 µM Cap; voltage ramp -80 to 80 mV, +80 mV; n: 7; **** p < 0.0001; room temperature
Protocol: as §1, §2
Untransfected and transfected HEK293 cells with the human TRPV1-GFP were recorded using a whole-cell voltage clamp. Cells were cultured in 15 mm round coverslips pretreated with 0.1 mg/mL poly-L-lysine (Gibco, Billings, MT, USA) and transfected with TRPV1-GFP plasmid. TRPV1-GFP-positive cells were identified using a 405 nm LED light in a Nikon Eclipse Ts2 inverted microscope. Borosilicate pipettes (nº 1B150F-4, World Precision Instruments, Sarasota, FL, USA) of 2.8’5 MΩ were used. Pipettes were pulled with a P-97 Micropipette Puller (Sutter Instruments, Novato, CA, USA). The extracellular solution contained (in mM) 140 NaCl, 5 KCl, 2 CaCl2, 1 MgCl2, 10 HEPES, and 6 glucose at pH 7.4. The internal solution contained (in mM) 140 CsCl, 4 MgCl2, 10 EGTA, and 10 HEPES-CsOH at pH 7.3. All the experiments were recorded using a HEKA EPC9 amplifier. The holding potential was −80 mV. A 500 ms voltage ramp from −80 to 80 mV was applied to record TRPV1 currents. The sample frequency was 50 kHz, and the signals were filtered at 2.9 kHz using PatchMaster software. Data were analyzed using Clampfit v.7 software (Molecular Devices, San Jose, CA, USA). The extracellular solution and ligands were administered using a VC-8 perfusion system (~2 mL/s, Warner Instruments, Holliston, MA, USA). We used capsaicin (Cayman Chemicals, nº 92350), SB366791 (nº 11019, Cayman Chemicals, Ann Arbor, MI, USA), and RVD-Hp (Synbio Technologies, Monmouth Junction, NJ, USA). We used dimethyl sulfoxide (DMSO, Sigma-Aldrich, St. Louis, MO, USA) and untransfected cells as controls. Electrophysiological recordings were performed at room temperature.
as §3

[4] = system: untransfected HEK293 cells; experiment: Whole-cell voltage-clamp recording, untransfected HEK293 cells; format: cell-based; conditions: 1 µM Cap; voltage ramp -80 to 80 mV; room temperature
Protocol: as §1
Untransfected and transfected HEK293 cells with the human TRPV1-GFP were recorded using a whole-cell voltage clamp. Cells were cultured in 15 mm round coverslips pretreated with 0.1 mg/mL poly-L-lysine (Gibco, Billings, MT, USA) and transfected with TRPV1-GFP plasmid. TRPV1-GFP-positive cells were identified using a 405 nm LED light in a Nikon Eclipse Ts2 inverted microscope. Borosilicate pipettes (nº 1B150F-4, World Precision Instruments, Sarasota, FL, USA) of 2.8’5 MΩ were used. Pipettes were pulled with a P-97 Micropipette Puller (Sutter Instruments, Novato, CA, USA). […] All the experiments were recorded using a HEKA EPC9 amplifier. […] Data were analyzed using Clampfit v.7 software (Molecular Devices, San Jose, CA, USA). […]
The data were analyzed and plotted using GraphPad software v10.0.2. […]

TRPV1 channel = system: TRPV1 channel; parameters: method as in 4 sources, ref [12]; anandamide and 2-AG ref [13],[14],[15],[16] ||| ref [88],[89] = [88]; PMID 27281200; doi:10.1038/nature17964; 88. Gao Y. Cao E. Julius D. Cheng Y. TRPV1 structures in nanodiscs reveal mechanisms of ligand and lipid action Nature 2016 534 347 351 10.1038/nature17964 27281200 PMC4911334 || [89]; PMID 37117175; doi:10.1038/s41467-023-38162-9; 89. Neuberger A. Oda M. Nikolaev Y.A. Nadezhdin K.D. Gracheva E.O. Bagriantsev S.N. Sobolevsky A.I. Human TRPV1 structure and inhibition by the analgesic SB-366791 Nat. Commun. 2023 14 2451 10.1038/s4 ||| ref [90] = [90]; PMID 38698206; doi:10.1038/s41594-024-01299-2; 90. Arnold W.R. Mancino A. Moss F.R. Frost A. Julius D. Cheng Y. Structural basis of TRPV1 modulation by endogenous bioactive lipids Nat. Struct. Mol. Biol. 2024 1 9 10.1038/s41594-024-01299-2 3869820 ||| ref [67] = [67]; PMID 29117570; doi:10.1016/j.celrep.2017.10.063; 67. Nersesyan Y. Demirkhanyan L. Cabezas-Bratesco D. Oakes V. Kusuda R. Dawson T. Sun X. Cao C. Cohen A.M. Chelluboina B. Oxytocin Modulates Nociception as an Agonist of Pain-Sensing TRPV1 Cell Rep. 2; conditions: cited from earlier work
From the text: The transient receptor potential (TRP) channels family involves several subfamilies, including the vanilloid (TRPVs) group. TRPV1, a member of the TRPV subfamily, is a non-selective cationic homotetramer channel. It is known to be activated by various stimuli, including temperature, capsaicin (the principal compound in chili peppers), and endocannabinoids such as anandamide (AEA) and 2-arachidonoylglycerol (2-AG). The TRPV1 channel protein is found in the central (CNS) and peripheral nervous system (PNS). In the CNS, TRPV1 is expressed in the prefrontal cort ... || Molecular dynamics (MD) simulations allow studying protein dynamics at an atomic level under physiological conditions, enhancing our understanding of various proteins, including ion channels like TRPV1 [82]. These simulations provide insight into their function, conformational changes, and interactions with different ligands.

[5] = cited from earlier work
From the text: Capsaicin creams and patches have been used in the treatment of muscle pain, neuropathic pain, arthritis, and migraines. […] CNTX-4975 has been developed as a treatment option for pain in individuals with osteoarthritis.

thermal hyperalgesia = conditions: capsazepine administration; ref [12],[32],[33],[34]; cited from earlier work

T1 sequence (Q8NER1 whole entry): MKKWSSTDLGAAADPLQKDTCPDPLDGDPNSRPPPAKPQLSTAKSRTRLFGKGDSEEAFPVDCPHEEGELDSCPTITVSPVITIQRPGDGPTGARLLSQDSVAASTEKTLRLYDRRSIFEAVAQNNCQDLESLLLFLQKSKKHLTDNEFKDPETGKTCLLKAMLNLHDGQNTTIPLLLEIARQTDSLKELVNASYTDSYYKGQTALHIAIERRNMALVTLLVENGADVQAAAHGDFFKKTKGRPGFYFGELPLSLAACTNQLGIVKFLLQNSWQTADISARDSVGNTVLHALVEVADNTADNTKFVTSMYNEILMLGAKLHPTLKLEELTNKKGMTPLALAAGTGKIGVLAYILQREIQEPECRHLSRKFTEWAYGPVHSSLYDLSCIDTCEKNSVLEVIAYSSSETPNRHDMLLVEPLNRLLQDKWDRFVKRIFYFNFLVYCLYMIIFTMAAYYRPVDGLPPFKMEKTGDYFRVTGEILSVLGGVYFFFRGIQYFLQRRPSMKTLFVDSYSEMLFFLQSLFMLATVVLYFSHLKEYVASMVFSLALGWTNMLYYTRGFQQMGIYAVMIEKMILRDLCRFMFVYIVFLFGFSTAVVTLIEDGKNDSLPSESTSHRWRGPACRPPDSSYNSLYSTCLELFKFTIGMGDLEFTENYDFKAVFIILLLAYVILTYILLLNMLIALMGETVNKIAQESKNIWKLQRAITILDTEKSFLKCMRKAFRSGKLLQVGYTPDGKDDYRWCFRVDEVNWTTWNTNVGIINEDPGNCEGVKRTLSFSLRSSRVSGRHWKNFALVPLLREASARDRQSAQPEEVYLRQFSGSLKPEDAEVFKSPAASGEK

SMILES	Intracellular Ca^2+ concentration (Fura Red ratio 405 nm/488 nm), agonist response (human TRPV1 channel [1])	Intracellular Ca^2+ concentration (Fura Red ratio 405 nm/488 nm) in untransfected cells [2]	Cap-induced TRPV1 currents (human TRPV1 channel [3])	TRPV1 currents in untransfected cells [4]	TRPV1 activation (TRPV1 channel; capsaicin ref [12], anandamide and 2-AG ref [13],[14],[15],[16])	Efficacy and bioavailability in vivo [5]	Water solubility [5]	Side effects ([5]; oral administration, ref [98])	TRPV1 binding mode of antagonists (TRPV1 channel; requiring four molecules to induce channel closure, ref [88],[89])	Thermal hyperalgesia (thermal hyperalgesia)
COc1cc(CNC(=O)CCCC/C=C/C(C)C)ccc1O [capsaicin]	produced an increase in intracellular Ca^2+ concentration	did not induce an increase in intracellular Ca^2+ concentration	showed Cap-induced currents	did not observe TRPV1 currents	activated	limited efficacy and bioavailability in vivo	poor water solubility	irritation, orofacial pain, and gastric ulcers		
Oc1cc2c(cc1O)CN(C(=S)NCCc1ccc(Cl)cc1)CCC2 [capsazepine]									bind to the vanilloid pocket and compete with capsaicin	reduces thermal hyperalgesia
